What was measured:
caspase-8 = caspase-8 (Homo sapiens, UniProt Q14790); assay: Caspase-8 activity in cellulo in CSF-1-differentiating monocytes (flow cytometry, IETD); type: cell-based; parameters: endogenous in cells; host or cells: primary human peripheral blood monocytes exposed to CSF-1; settings: CSF-1 2 days
Text: (§1) FIG. 5. […] Caspases activities from 3 different healthy donors was examined by flow cytometry analysis. The results are expressed as percentage of IETD or DEVD positive cells and represent the mean±SD of 3 independent experiments performed in duplicate. n.s. denotes not statistically significant according to a paired student t test. *P<0.05, **P<0.01, ***P<0.001 according to a paired student t test (versus d2). Asterisks indicate cleavage fragments. Each panel is representative of at least 3 independent experiments.
(§2) To analyze the macrophagic differentiation of monocytes, the cells were washed with ice-cold phosphate buffered saline (PBS, Life Technologies, 14190169), incubated at 4° C. for 10 min in PBS/bovine serum albumin (BSA 0.5%, Dutscher, 871002) with anti-CD16, anti-CD71 and anti-CD163 or isotype controls (Miltenyi and BD Biosciences, catalog numbers were 130-113-396, 130-097-628 and 551374). […] Fluorescence was measured with a MACSQuant® Analyzer (Miltenyi, Paris, France). […] Fluorescence was measured with a MACSQuant® Analyzer (Miltenyi, Paris, France). […] Fluorescence, that indicate the internalization of particles, was measured with a MACSQuant® Analyzers (Miltenyi, France). Trypan blue solution was used to quench the fluorescence from particles that were not internalized. […]
(§3) After 2 days, caspase-8 activity was assessed by flow cytometry using Ac-IETD-FITC as substrate (data not shown).

primary human monocytes = assay: Cell death in CSF-1-treated differentiating monocytes (AnnexinV/DAPI flow cytometry); type: cell-based
Text: FIG. 1. […] (A) Macrophagic differentiation of monocytes from 3 different healthy donors was examined by 3-color flow cytometric analysis. The results are expressed as percentage of CD71/CD163 or CD16/CD163 double positive cells and represent the mean±SD of 3 independent experiments performed in duplicate. (B) Cell death from 3 different healthy donors was examined by flow cytometry analysis. The results are expressed as percentage of AnnexinV/DAPI double positive cells and represent the mean±SD of 3 independent experiments performed in duplicate. n.s. denotes not statistically significant according to a paired student t test. *P<0.05, **P<0.01, ***P<0.001 according to a paired student t test (versus d2).
To analyze the macrophagic differentiation of monocytes, the cells were washed with ice-cold phosphate buffered saline (PBS, Life Technologies, 14190169), incubated at 4° C. for 10 min in PBS/bovine serum albumin (BSA 0.5%, Dutscher, 871002) with anti-CD16, anti-CD71 and anti-CD163 or isotype controls (Miltenyi and BD Biosciences, catalog numbers were 130-113-396, 130-097-628 and 551374). Finally, the cells were washed and fixed in 2% paraformaldehyde (EMS, 15710). To perform macrophage polarization, purified monocytes were plated at 0.3×10^6 per mL in RPMI 1640 medium with glutamax-I supplemented with 10% (vol/vol) fetal bovine serum plus CSF-1 for 5+2 days to differentiate into M0 macrophages. 20 ng/mL IL-4 (Miltenyi, 130-094-117) was added after 5 days of differentiation for two days to polarize into M2-macrophages. To analyze the macrophage polarization, cells were detached using PBS/EDTA/BSA, washed with PBS, and incubated at 4° C. for 10 min in PBS/bovine serum albumin with anti-CD200R (Biolegend, 329308), anti-CD206 (Miltenyi, 130-100-034) and anti-CD163 (Miltenyi, 130-097-628) or isotype controls. Finally, the cells were washed and fixed in 2% paraformaldehyde (EMS, 15710). Fluorescence was measured with a MACSQuant® Analyzer (Miltenyi, Paris, France). To analyze the cell death, cells were washed with ice-cold PBS and incubated at 4° C. for 15 min in a specific buffer (10 mM HEPES, 150 mM NaCl, 5 mM KCl, 1 mM MgCl2, 1 mM CaCl2) with AnnexinV-FITC (Miltenyi, 130-097-928) and DAPI (Sigma-Aldrich, D9542). Fluorescence was measured with a MACSQuant® Analyzer (Miltenyi, Paris, France). To analyze the ability of macrophages to phagocyte bacteria, we used Vybrant® Phagocytosis Assay Kit according manufacture's instruction (ThermoFisher, V-6694). […] Fluorescence, that indicate the internalization of particles, was measured with a MACSQuant® Analyzers (Miltenyi, France). Trypan blue solution was used to quench the fluorescence from particles that were not internalized. […]

[1] = several recent studies (Frenette 2019; Barreyro 2015; Baskin-Bey 2007); cited from earlier work
caspase 3 = biological target: T1, caspase 3 (Homo sapiens, UniProt P42574); assay: Caspase-3 activity in cellulo in CSF-1-differentiating monocytes (flow cytometry, DEVD); type: cell-based; parameters: endogenous in cells; host or cells: primary human peripheral blood monocytes (CD14-selected, healthy donors); settings: identical conditions: Emricasan single dose, Q-VD-OPh 100 μM 2 times
T1 sequence (P42574 29-175 limits assumed): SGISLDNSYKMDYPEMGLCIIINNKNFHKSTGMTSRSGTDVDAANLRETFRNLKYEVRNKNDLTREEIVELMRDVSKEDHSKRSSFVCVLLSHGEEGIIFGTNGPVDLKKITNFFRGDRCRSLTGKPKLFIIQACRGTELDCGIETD
T1 sequence (P42574 176-277 limits assumed): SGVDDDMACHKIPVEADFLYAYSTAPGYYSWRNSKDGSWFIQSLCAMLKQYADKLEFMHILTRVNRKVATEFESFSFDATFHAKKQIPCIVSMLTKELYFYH
Text: as §1, §2, §3

Sequence of caspase-8 (Q14790 217-479): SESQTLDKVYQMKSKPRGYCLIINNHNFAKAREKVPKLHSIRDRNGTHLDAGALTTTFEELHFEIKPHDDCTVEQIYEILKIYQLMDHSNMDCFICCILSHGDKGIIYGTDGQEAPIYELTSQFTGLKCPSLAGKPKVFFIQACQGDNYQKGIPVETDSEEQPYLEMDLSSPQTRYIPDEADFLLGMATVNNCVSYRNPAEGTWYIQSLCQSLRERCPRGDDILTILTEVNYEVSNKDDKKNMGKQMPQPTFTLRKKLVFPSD

| effect on caspase-8 activity in cellulo (caspase-8; added twice at 100 μM) | Structure (SMILES) | single dose that abrogated caspase-8 activity in cellulo (caspase-8; flow cytometry) [µM] | apoptosis induction in undifferentiated monocytes (primary human monocytes) | DAPI staining (primary human monocytes; higher concentrations (3 μM)) | toxicity for primary human monocytes (primary human monocytes; low concentrations (up to 2 μM)) | Annexin V staining (primary human monocytes; low concentrations, CSF-1, 48 h) | liver functions in patients suffering liver diseases [1] | effect on caspase-3 activity in cellulo (caspase 3) |
| --- | --- | --- | --- | --- | --- | --- | --- | --- |
| – | C[C@H](NC(=O)C(=O)Nc1ccccc1C(C)(C)C)C(=O)N[C@@H](CC(=O)O)C(=O)COc1c(F)c(F)cc(F)c1F [Emricasan, (S)-3-((S)-2-(2-((2-(tert-Butyl)phenyl)amino)-2-oxoacetamido)propanamido)-4-oxo-5-(2,3,5,6-tetrafluorophenoxy)pentanoic acid] | 2 | did not induce apoptosis | slightly increased DAPI staining | not toxic | failed to induced significant loss of Annexin V staining | improve liver functions | potent inhibition |
| strong inhibition | CC(C)[C@H](NC(=O)c1ccc2ccccc2n1)C(=O)N[C@@H](CC(=O)O)C(=O)COc1c(F)cccc1F [Q-VD-OPh] | – | – | – | – | – | – | potent inhibition |

— patent US20220354811A1, “METHODS AND COMPOSITIONS FOR MODULATING MACROPHAGES POLARIZATION” (INSERM (INSTITUT NATIONAL DE LA SANTÉ ET DE LA RECHERCHE …, priority 2019, published 2022)
